Reference: patent US11566007B2, “Ras inhibitors” (Revolution Medicines, Inc., priority 2019, dated 2023)
Read-outs that look alike come from different tables or passages of the source.

Experiments:
KRAS Q61H = KRAS Q61H (Homo sapiens (Human), UniProt P01116+P62937, Q61H); assay: Ras-Raf (BRAF RBD) disruption / FRET / MOA assay, KRAS Q61H; type: biochemical
Procedure: The purpose of this biochemical assay is to measure the ability of test compounds to facilitate ternary complex formation between a nucleotide-loaded Ras isoform and cyclophilin A; the resulting ternary complex disrupts binding to a BRAF^RBD construct, inhibiting Ras signaling through a RAF effector.
(§1) […]. Compound is present in plate wells as a 10-point 3-fold dilution series starting at a final concentration of 30 μM. After incubation at 25° C. for 3 hours, a mixture of Anti-His Eu-W1024 and anti-GST allophycocyanin is then added to assay sample wells at final concentrations of 10 nM and 50 nM, respectively, and the reaction incubated for an additional 1.5 hours. […] Compounds that facilitate disruption of a Ras:RAF complex are identified as those eliciting a decrease in the TR-FRET ratio relative to DMSO control wells.
Note—The following protocol describes a procedure for monitoring disruption of K-Ras G12C (GMP-PNP) binding to BRAF^RBD by a compound of the invention. This protocol may also be executed substituting other Ras proteins or nucleotides.
The purpose of this biochemical assay was to measure the ability of test compounds to facilitate ternary complex formation between a nucleotide-loaded K-Ras isoform and Cyclophilin A; the resulting ternary complex disrupts binding to a BRAF^RBD construct, inhibiting K-Ras signaling through a RAF effector. Data is reported as IC50 values.
as §1, with “Compound was” for “Compound is”, “allophycocyanin was” for “allophycocyanin is”, “a K-Ras:RAF” for “a Ras:RAF”, “complex were” for “complex are”

KRAS G12S = KRAS G12S (Homo sapiens (Human), UniProt P01116+P62937, G12S); assay: Ras-Raf (BRAF RBD) disruption / FRET / MOA assay, KRAS G12S; type: biochemical
Procedure, shortened: (§2)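 TR-FRET read-out: a drop in ratio relative to DMSO wells marks disruption of the Ras:RAF complex, reported as IC50. Compounds (3-fold series, 10 points, top 30 μM final) incubated 3 h at 25° C before Eu-anti-His 10 nM and APC-anti-GST 50 nM, 1.5 h more.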

KRAS G12D = KRAS G12D (Homo sapiens (Human), UniProt P01116+P62937, G12D); assay: Ras-Raf (BRAF RBD) disruption / FRET / MOA assay, KRAS G12D; type: biochemical
Procedure, shortened: as §2

NCI-H358 (K-Ras G12C) = assay: CellTiter-Glo cell viability assay, NCI-H358; type: cell-based, human; details: NCI-H358, 5-day treatment, class symbols, read-out: Additional H358 Cell Viability assay data (K-Ras G12C, IC50)
Procedure, shortened: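 Cells seeded, compound added directly, 5-day exposure. Plates to RT ~30 min, CellTiter-Glo luminescence read. Normalized to DMSO avg (x100); 4-parameter logistic fit.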

[1] = test system: NCI-H358 cells (K-Ras G12C); assay: Potency assay: pERK in NCI-H358 cells; type: cell-based, human; details: H358 KRAS G12C, read-out: pERK EC50
Procedure, shortened: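 pERK decrease read by AlphaLISA SureFire p-ERK1/2 or In-Cell Western after 4 h compound exposure at 37 °C, 5% CO2.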

[2] = Ras-Raf disruption/FRET/MOA assay; class symbols; read-out: KRAS Q61H FRET data IC50
[3] = Ras-Raf disruption/FRET/MOA assay; class symbols; read-out: KRAS G12S FRET data IC50
[4] = Ras-Raf disruption/FRET/MOA assay; class symbols; read-out: KRAS G12D FRET data IC50

Chain of KRAS G12D (P01116-2 other isoform, or with tags, fused parts or gaps G12D): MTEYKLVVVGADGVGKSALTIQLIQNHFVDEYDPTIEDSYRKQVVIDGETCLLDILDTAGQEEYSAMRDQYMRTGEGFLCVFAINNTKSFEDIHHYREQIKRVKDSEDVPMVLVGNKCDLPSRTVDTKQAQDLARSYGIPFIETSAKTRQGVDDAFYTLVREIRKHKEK
Chain of KRAS G12D (P62937 whole entry): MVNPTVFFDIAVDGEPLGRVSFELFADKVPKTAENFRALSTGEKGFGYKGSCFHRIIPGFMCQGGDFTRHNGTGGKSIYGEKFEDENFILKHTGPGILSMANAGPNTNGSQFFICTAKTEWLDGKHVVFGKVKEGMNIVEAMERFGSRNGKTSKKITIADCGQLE
Chain of KRAS G12S (P01116-2 other isoform, or with tags, fused parts or gaps G12S): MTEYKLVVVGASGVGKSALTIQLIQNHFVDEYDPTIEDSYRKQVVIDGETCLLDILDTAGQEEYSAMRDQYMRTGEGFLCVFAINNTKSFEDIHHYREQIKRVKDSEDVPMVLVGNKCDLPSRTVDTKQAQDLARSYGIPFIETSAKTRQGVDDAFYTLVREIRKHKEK
Chain of KRAS G12S (P62937 whole entry): as the sequence (P62937 whole entry) above
Chain of KRAS Q61H (P01116-2 other isoform, or with tags, fused parts or gaps Q61H): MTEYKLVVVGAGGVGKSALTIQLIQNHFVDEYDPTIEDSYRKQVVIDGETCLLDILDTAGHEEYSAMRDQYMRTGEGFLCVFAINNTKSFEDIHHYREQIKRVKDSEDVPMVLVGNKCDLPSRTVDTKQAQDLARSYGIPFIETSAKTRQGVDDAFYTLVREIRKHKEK
Chain of KRAS Q61H (P62937 whole entry, canonical isoform): as the sequence (P62937 whole entry) above

| Compound | IC50 (KRAS Q61H; read-out: KRAS Q61H FRET data IC50; Ras-Raf disruption/FRET/MOA assay; class symbols) [nM] | IC50 (KRAS G12S; read-out: KRAS G12S FRET data IC50; Ras-Raf disruption/FRET/MOA assay; class symbols) [nM] | IC50 (KRAS G12D; read-out: KRAS G12D FRET data IC50; Ras-Raf disruption/FRET/MOA assay; class symbols) [µM] | IC50 (NCI-H358 (K-Ras G12C); Homo sapiens, NCI-H358, 120 h) [nM] | EC50 ([1]; Homo sapiens, NCI-H358) [µM] | IC50 (KRAS Q61H; [2]) [nM] | IC50 (KRAS G12S; [3]) [nM] | IC50 (KRAS G12D; [4]) [µM] | IC50 (NCI-H358 (K-Ras G12C)) [nM] | EC50 [1] [µM] |
| --- | --- | --- | --- | --- | --- | --- | --- | --- | --- | --- |
| C=CC(=O)N1CC[C@H](C(=O)N(C)[C@H](C(=O)N[C@H]2Cc3cc(sn3)-c3ccc4c(c3)c(c(-c3cccnc3[C@H](C)OC)n4CC)CC(C)(C)COC(=O)[C@@H]3CCCN(N3)C2=O)C(C)C)C1 (atropisomer, axis not shown) [Example A277] | 100 to 1000 | 1000 to 10000 | > 10 | 100 to 1000 | < 5 |  |  |  |  |  |
| C=CC(=O)N1CC[C@H](C(=O)N(C)[C@H](C(=O)N[C@H]2CC3=NC=C(O3)c3ccc4c(c3)c(c(-c3cccnc3[C@H](C)OC)n4CC)CC(C)(C)COC(=O)[C@@H]3CCCN(N3)C2=O)C(C)C)C1 (atropisomer, axis not shown) [Example A331] |  |  |  |  |  | 1000 to 10000 | 1000 to 10000 | > 10 | 100 to 1000 | < 5 |
| CCn1c(-c2cccnc2[C@H](C)OC)c2c3cc(ccc31)-c1cccc(c1)C[C@H](NC(=O)[C@H](C(C)C)N(C)C(=O)[C@H]1CCN(C(=O)C#CC(C)(C)N(C)C)C1)C(=O)N1CCC[C@H](N1)C(=O)OCC(C)(C)C2 (atropisomer, axis not shown) [Example A339] |  |  |  |  |  | 1000 to 10000 | 1000 to 10000 | > 10 | < 10 | < 5 |
| C=CC(=O)Nc1ncc(C(=O)N(C)[C@H](C(=O)N[C@H]2Cc3cccc(c3)-c3ccc4c(c3)c(c(-c3cccnc3[C@H](C)OC)n4CC)CC(C)(C)COC(=O)[C@@H]3CCCN(N3)C2=O)C(C)C)n1C (atropisomer, axis not shown) [Example A475] |  |  |  |  |  | 100 to 1000 | 1000 to 10000 | > 10 |  | < 5 |
| C=CC(=O)N1CCN(C(=O)N(C)[C@H](C(=O)N[C@H]2Cc3nc(cs3)-c3ccc4c(c3)c(c(-c3cccnc3[C@H](C)OC)n4CC)CC(C)(C)COC(=O)[C@@H]3CCCN(N3)C2=O)C(C)C)CC1 (atropisomer, axis not shown) [Example A492] |  |  |  |  |  | 10 to 100 | 10 to 100 | 0.1 to 1 | < 10 | < 5 |
| C=CC(=O)N1CC[C@H](C(=O)N(C)[C@H](C(=O)N[C@H]2Cc3cc(O)cc(c3)-c3ccc4c(c3)c(c(-c3c(F)cccc3CCOC)n4CC)CC(C)(C)COC(=O)[C@@H]3CCCN(N3)C2=O)C(C)C)C1 [Example A025] |  |  |  |  |  | 1000 to 10000 | 1000 to 10000 | > 10 |  |  |
| C=CC(=O)N1CC[C@H](C(=O)N(C)[C@H](C(=O)N[C@H]2Cc3cc(O)cc(c3)-c3ccc4c(c3)c(c(-c3ccccc3N3CCOCC3)n4CC)CC(C)(C)COC(=O)[C@@H]3CCCN(N3)C2=O)C(C)C)C1 [Example A026] |  |  |  |  |  | 1000 to 10000 | > 10000 | > 10 |  |  |
| C=CC(=O)N1CC[C@H](C(=O)N(C)[C@H](C(=O)N[C@H]2Cc3cc(O)cc(c3)-c3ccc4c(c3)c(c(-c3cccnc3)n4CC)CC(C)(C)COC(=O)[C@@H]3CCCN(N3)C2=O)C(C)C)C1 [Example A045] |  |  |  |  |  | 100 to 1000 | 1000 to 10000 | > 10 |  |  |
